Results taken from US11957680B2, “Pyruvate kinase activators for use in treating blood disorders” (Agios Pharmaceuticals, Inc., priority 2017, dated 2024).

How the values were obtained:
wild type PKR [1] = biological target: T1, wild type PKR (Homo sapiens, UniProt P30613); experiment: PKR (wild type) enzyme AC50 assay, LDH/NADH-coupled, absorbance at 340 nm; assay type: biochemical; details: Table 4; AC50, enzyme assay; read-out: PKR WT
Outline: (§1)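 Human PKR, wild type or K410E/R510Q mutant (40-400 ng/well), preincubated 60 min at room temperature with compound (11-point 3-fold series from 100 μM, 1% DMSO) in Tris pH 7.5/KCl/MgCl2 buffer with PEP 0.1-0.5 mM, 180 μM NADH, LDH. ADP (0.2-1.65 mM) started the reaction; LDH-coupled NADH consumption followed at 340 nm.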

PKR R510Q = PKR R510Q (Homo sapiens, UniProt P30613, R510Q); experiment: PKR mutant assay (R510Q), AC50, LDH/NADH-coupled, absorbance at 340 nm; assay type: biochemical; details: Table 4; AC50, enzyme assay; read-out: PK R510Q
Sequence of PKR R510Q (P30613 whole entry R510Q): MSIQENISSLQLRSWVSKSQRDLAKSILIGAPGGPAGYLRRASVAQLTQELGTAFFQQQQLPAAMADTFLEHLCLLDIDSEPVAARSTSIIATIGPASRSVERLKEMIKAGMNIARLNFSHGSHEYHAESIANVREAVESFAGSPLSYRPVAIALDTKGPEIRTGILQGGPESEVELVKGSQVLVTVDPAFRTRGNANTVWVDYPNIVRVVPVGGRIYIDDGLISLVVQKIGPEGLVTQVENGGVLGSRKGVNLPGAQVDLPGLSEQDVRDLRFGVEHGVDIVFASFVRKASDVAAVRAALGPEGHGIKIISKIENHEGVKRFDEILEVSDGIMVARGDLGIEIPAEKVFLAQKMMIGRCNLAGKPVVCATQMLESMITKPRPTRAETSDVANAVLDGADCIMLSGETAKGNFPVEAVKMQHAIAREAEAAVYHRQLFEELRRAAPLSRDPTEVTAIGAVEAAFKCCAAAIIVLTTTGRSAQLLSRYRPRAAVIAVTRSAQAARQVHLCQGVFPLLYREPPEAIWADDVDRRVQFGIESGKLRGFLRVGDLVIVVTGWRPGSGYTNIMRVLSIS
Outline: as §1

wild type PKR [2] = biological target: T1, wild type PKR; experiment: Cell based ATP assay in purified red blood cells (Cell-Titer-Glo); set-up: endogenous in cells; host or cells: purified red blood cells from healthy volunteers; details: Table 4; AC50, RBCs, overnight at 37° C., ATP levels
Outline: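 RBCs from healthy human donors' K2EDTA blood were leukocyte-depleted by filtration and resuspended in AGAM (PBS, 1% glucose, adenine, mannitol). Cells at 1×10^7 cells/mL were incubated overnight at 37 °C with serially diluted compound at 0.1% DMSO, and ATP was read by Cell-Titer-Glo luminescence.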

PKR K410E = PKR K410E (Homo sapiens, UniProt P30613, K410E); experiment: PKR mutant assay (K410E), AC50, LDH/NADH-coupled, absorbance at 340 nm; assay type: biochemical; details: Table 4; AC50, enzyme assay
Sequence of PKR K410E (P30613 whole entry K410E): as the sequence (P30613 whole entry R510Q) above, with K410E, Q510R counted along it
Outline: as §1

T1 sequence (P30613 whole entry): as the sequence (P30613 whole entry R510Q) above, with Q510R counted along it

| SMILES | EC50 (wild type PKR [1]) | EC50 (PKR R510Q) | EC50 (wild type PKR [2]) | EC50 (PKR K410E) |
| --- | --- | --- | --- | --- |
| Cn1c2nc(Cc3cnn[nH]3)sc2c2cnn(Cc3cccc4[nH]ncc34)c(=O)c21 [Compound 217] | < 300 nM | < 300 nM | ≤ 1000 nM | < 300 nM |
| COc1ncccc1Cc1nc2c(s1)c1cnn(Cc3cccc4[nH]ncc34)c(=O)c1n2C [Compound 219] | < 300 nM | < 300 nM | ≤ 1000 nM | < 300 nM |
| Cn1c2nc(Cc3ncsc3Br)sc2c2cnn(Cc3cccc4[nH]ncc34)c(=O)c21 [Compound 220] | < 300 nM | < 300 nM | ≤ 1000 nM | < 300 nM |
| Cn1c2nc(Cc3nnco3)sc2c2cnn(Cc3cccc4[nH]ncc34)c(=O)c21 [Compound 221] | < 300 nM | 301 to 800 nM | > 1000 nM | < 300 nM |
| Cn1c2nc(Cc3nccs3)sc2c2cnn(Cc3cccc4[nH]ncc34)c(=O)c21 [Compound 222] | < 300 nM | < 300 nM | ≤ 1000 nM | < 300 nM |
| Cn1ncc2cc(Cn3ncc4c5sc(Cc6cc[nH]n6)nc5n(C)c4c3=O)ccc21 [Compound 224] | < 300 nM | < 300 nM | ≤ 1000 nM | < 300 nM |
| Cn1c2nc(Cc3cccc4[nH]nnc34)sc2c2cnn(Cc3cccc4[nH]ncc34)c(=O)c21 [Compound 225] | < 300 nM | < 300 nM | ≤ 1000 nM | < 300 nM |
| Cn1c2nc(Cc3cc[nH]n3)sc2c2cnn(Cc3ccc4c(c3)OCO4)c(=O)c21 [Compound 226] | < 300 nM | < 300 nM | ≤ 1000 nM | < 300 nM |
| Cn1c2nc(Cc3cscn3)sc2c2cnn(Cc3cccc4[nH]ncc34)c(=O)c21 [Compound 227] | < 300 nM | < 300 nM | ≤ 1000 nM | < 300 nM |
| Cn1c2nc(Cc3ccc[nH]c3=O)sc2c2cnn(Cc3cccc4[nH]ncc34)c(=O)c21 [Compound 228] | < 300 nM | < 300 nM | ≤ 1000 nM | < 300 nM |
| Cn1c2nc(Cc3cnc(N)s3)sc2c2cnn(Cc3cccc4[nH]ncc34)c(=O)c21 [Compound 229] | 301 to 800 nM | 301 to 800 nM | > 1000 nM | 301 to 800 nM |
| Cn1c2nc(Cc3nc[nH]n3)sc2c2cnn(Cc3cccc4[nH]ncc34)c(=O)c21 [Compound 230] | < 300 nM | < 300 nM | ≤ 1000 nM | < 300 nM |
| Cn1c2nc(Cc3cc(Cl)[nH]n3)sc2c2cnn(Cc3cccc4[nH]ncc34)c(=O)c21 [Compound 233] | < 300 nM | < 300 nM | ≤ 1000 nM | < 300 nM |
| Cn1c2nc(Cc3cc(F)[nH]n3)sc2c2cnn(Cc3cccc4[nH]ncc34)c(=O)c21 [Compound 234] | < 300 nM | < 300 nM | > 1000 nM | < 300 nM |
| Cn1c2nc(Cc3cc[nH]n3)sc2c2cnn(Cc3cccc4sc(N)nc34)c(=O)c21 [Compound 235] | < 300 nM | < 300 nM | ≤ 1000 nM | < 300 nM |
| Cn1c2nc(Cc3n[nH]cc3F)sc2c2cnn(Cc3cccc4[nH]ncc34)c(=O)c21 [Compound 236] | < 300 nM | < 300 nM | ≤ 1000 nM | < 300 nM |
| Cn1c2nc(Cc3cc[nH]n3)sc2c2cnn(Cc3ccc4scnc4c3)c(=O)c21 [Compound 237] | < 300 nM | < 300 nM | ≤ 1000 nM | < 300 nM |
| Cn1c2nc(Cc3cnco3)sc2c2cnn(Cc3cccc4[nH]ncc34)c(=O)c21 [Compound 240] | 301 to 800 nM | 301 to 800 nM | ≤ 1000 nM | > 800 nM |
| Cn1c2nc(Cc3cccc4cn[nH]c34)sc2c2cnn(Cc3cc[nH]n3)c(=O)c21 [Compound 241] | < 300 nM | < 300 nM | ≤ 1000 nM | < 300 nM |
| Cn1c2nc(Cc3n[nH]cc3Cl)sc2c2cnn(Cc3cccc4[nH]ncc34)c(=O)c21 [Compound 244] | < 300 nM | < 300 nM | ≤ 1000 nM | < 300 nM |
| Cn1c2nc(Cc3cccc4[nH]c(=O)[nH]c34)sc2c2cnn(Cc3cccc4[nH]ncc34)c(=O)c21 [Compound 245] | 301 to 800 nM | < 300 nM | ≤ 1000 nM | 301 to 800 nM |
| Cn1c2nc(Cc3cc[nH]n3)sc2c2cnn(Cc3cccc4[nH]ccc34)c(=O)c21 [Compound 246] | < 300 nM | < 300 nM | ≤ 1000 nM | < 300 nM |
| Cn1c2nc(Cc3cc[nH]n3)sc2c2cnn(Cc3cccc4[nH]c(=O)[nH]c34)c(=O)c21 [Compound 252] | < 300 nM | < 300 nM | ≤ 1000 nM | < 300 nM |

| SMILES | EC50 (wild type PKR [1]) | EC50 (PKR R510Q) | EC50 (wild type PKR [2]) | EC50 (PKR K410E) |
| --- | --- | --- | --- | --- |
| Cn1c2nc(Cc3cc[nH]n3)sc2c2cnn(Cc3cccc4c3CNC4)c(=O)c21 [Compound 253] | < 300 nM | < 300 nM | ≤ 1000 nM | < 300 nM |
| Cn1c2nc(Cc3cc[nH]n3)sc2c2cnn(Cc3ccc(O)c(N)c3)c(=O)c21 [Compound 256] | < 300 nM | < 300 nM | ≤ 1000 nM | < 300 nM |
| Cn1ccc(Cn2ncc3c4sc(Cc5cccc6cn[nH]c56)nc4n(C)c3c2=O)n1 [Compound 258] | < 300 nM | < 300 nM | ≤ 1000 nM | < 300 nM |
| Cn1c2nc(Cc3ccccn3)sc2c2cnn(Cc3ccccc3)c(=O)c21 [Compound 263] | < 300 nM | < 300 nM | ≤ 1000 nM | < 300 nM |
| Cn1c2nc(Cc3cscn3)sc2c2cnn(Cc3ccccc3)c(=O)c21 [Compound 270] | < 300 nM | < 300 nM | ≤ 1000 nM | < 300 nM |
| Cn1c2nc(Cc3c[nH]nn3)sc2c2cnn(Cc3ccccc3)c(=O)c21 [Compound 273] | > 800 nM | > 800 nM | > 1000 nM | > 800 nM |
| Cn1c2nc(Cc3cc[nH]n3)sc2c2cnn(Cc3cccc4c3NS(=O)(=O)N4)c(=O)c21 [Compound 275] | > 800 nM | > 800 nM | > 1000 nM | > 800 nM |
| Cn1c2nc(Cc3cccc(N)n3)sc2c2cnn(Cc3cccc4[nH]ncc34)c(=O)c21 [Compound 276] | < 300 nM | < 300 nM | ≤ 1000 nM | < 300 nM |
| Cn1c2nc(Cn3ccnc3)sc2c2cnn(Cc3cccc4[nH]ncc34)c(=O)c21 [Compound 277] | > 800 nM | > 800 nM | > 1000 nM | 301 to 800 nM |
| Cn1c2nc(Cc3cc[nH]n3)sc2c2cnn(Cc3cccc4[nH]cnc34)c(=O)c21 [Compound 278] | < 300 nM | < 300 nM | ≤ 1000 nM | < 300 nM |
| Cn1c2nc(Cc3cc[nH]n3)sc2c2cnn(Cc3ccc4[nH]ncc4n3)c(=O)c21 [Compound 280] | < 300 nM | < 300 nM | ≤ 1000 nM | < 300 nM |
| Cn1ncc2nc(Cn3ncc4c5sc(Cc6cc[nH]n6)nc5n(C)c4c3=O)ccc21 [Compound 288] | < 300 nM | < 300 nM | ≤ 1000 nM | < 300 nM |
| Cn1c2nc(Cc3c[nH]nn3)sc2c2cnn(Cc3cccc(OC(F)(F)F)c3)c(=O)c21 [Compound 290] | < 300 nM | < 300 nM | ≤ 1000 nM | < 300 nM |
| Cn1c2nc(Cn3cccn3)sc2c2cnn(Cc3cccc4[nH]ncc34)c(=O)c21 [Compound 292] | < 300 nM | < 300 nM | ≤ 1000 nM | < 300 nM |
| Cn1c2nc(Cn3cncn3)sc2c2cnn(Cc3cccc4[nH]ncc34)c(=O)c21 [Compound 293] | < 300 nM | 301 to 800 nM | ≤ 1000 nM | < 300 nM |
| Cn1c2nc(Cn3cnnc3)sc2c2cnn(Cc3cccc4[nH]ncc34)c(=O)c21 [Compound 294] | > 800 nM | 301 to 800 nM | > 1000 nM | > 800 nM |
| Cn1c2nc(Cc3c[nH]nn3)sc2c2cnn(Cc3ccc(OC(F)(F)F)cc3)c(=O)c21 [Compound 295] | < 300 nM | < 300 nM | ≤ 1000 nM | < 300 nM |
| Cn1c2nc([C@@H](O)c3cc[nH]n3)sc2c2cnn(Cc3cccc4[nH]ncc34)c(=O)c21 [Compound 304] | < 300 nM | < 300 nM | ≤ 1000 nM | < 300 nM |
| Cn1c2nc([C@H](O)c3cc[nH]n3)sc2c2cnn(Cc3cccc4[nH]ncc34)c(=O)c21 [Compound 305] | < 300 nM | < 300 nM | ≤ 1000 nM | < 300 nM |
| Cn1c2nc(Cc3cc[nH]n3)sc2c2cnn(Cc3cccc4[nH][nH]c(=O)c34)c(=O)c21 [Compound 307] | < 300 nM | < 300 nM | ≤ 1000 nM | < 300 nM |
| Cn1c2nc(Cc3cn[nH]n3)sc2c2cnn(Cc3cccc(OC(F)(F)F)c3F)c(=O)c21 [Compound 329] | 301 to 800 nM | < 300 nM | ≤ 1000 nM | 301 to 800 nM |
| Cn1c2nc(Cc3cc[nH]n3)sc2c2cnn(Cc3cccc(O)c3)c(=O)c21 [Compound 369] | < 300 nM | < 300 nM | ≤ 1000 nM | < 300 nM |
